Assays:
polarized T84 cells [1] = assay: Ng-induced exfoliation of polarized T84 monolayers (3D-CFM); type: cell-based, human; details: MS11ΔOpa, 6 h; inhibitor 1 h before and during; ML-7 10 μM, PIK 100 μM, Y27632 10 μM, 2APB 10 μM
Excerpt: To quantify epithelial exfoliation, the number of Ng associated cells localized on the top of the epithelial monolayer (exfoliated) and the total number of Ng associated epithelial cells was counted by visual inspection in each randomly acquired image, to determine the percentage of exfoliated cells. To estimate the level of Ng penetration into the subepithelium, the number of non-exfoliated epithelial cells (in clearly visible epithelial monolayers) with basal Ng staining and the total number of Ng associated epithelial cells were visually counted to calculate the percentage of infected epithelial cells with Ng penetration into the basolateral side. To evaluate the disruption of the apical junction, the number of Ng associated epithelial cells that lost continuously apical staining of the junctional protein ZO1 and the total number of Ng associated epithelial cells were visually counted to calculate the percentage of Ng associated epithelial cells with apical junction disassembly. To quantify the redistribution of pMLC, the fluorescence intensity ratios (FIR) of pMLC staining at the apical to lateral in individual epithelial cells were determined using average FI as previously described.
(§1) Immunofluorescence analysis of polarized epithelial cells. Cells were pretreated with or without NMII kinase inhibitors, Y27632 (10 μM, EMD Millipore), ML-7 (10 μM, EMD Millipore) and PIK (100 μM) or Ca2+ inhibitors, 2APB (10 μM, EMD Millipore) and BAPTA (50 μM, EMD Millipore) for 1 h, and incubated with Ng in the presence or absence of the inhibitors for 6 h. Cell were washed and fixed with 4% paraformaldehyde, permeabilized with 1% Triton X100, and stained with anti-E-cadherin (BD Bioscience), anti-pMLC (Cell Signaling Technology, Carlsbad, Calif.), anti-Ng antibodies, and DAPI for nuclei. Cells were analyzed by CFM. Images were acquired as Z-series of 0.37 μm slices, and 3D composites obtained. Epithelial exfoliation will be quantified using xz images as described for the tissue explants. The distribution of E-cadherin and pMLC was quantitatively analyzed by measuring the FIR at the apical junctional to the cytoplasmic area (from xy images) or at the apical to lateral surface area (from xz images) in individual cells.

[2] = test system: Neisseria gonorrhoeae MS11; assay: Ng adherence, invasion, and transmigration assays on polarized epithelial cells; type: cell-based; details: for transmigration of MS11ΔOpa across the polarized T84 monolayer / Ng invasion into polarized T84 cells (gentamicin resistance): 6 h; for transmigration of MS11ΔOpa across the polarized T84 monolayer: ML-7 10 μM, PIK 100 μM, 2APB 10 μM, Y27632 10 μM; for Ng adherence to polarized T84 cells / Ng invasion into polarized T84 cells (gentamicin resistance): MS11ΔOpa, with inhibitors; for Ng adherence to polarized T84 cells: 3 h
Protocol: Ng adherence, invasion, and transmigration assays. The assays were performed as previously described. Briefly, polarized epithelial cells that were pretreated with or without the inhibitors for 1 h were incubated apically with Ng at 37° C. for 3 h for adherence and 6 h for invasion and transmigration assays with or without the inhibitors. Ng in the basolateral media were cultured and counted as transmigrated bacteria. Cells were washed and lysed to count adherent Ng. Cells were treated with gentamicin, washed, and lysed to count bacteria that were resistant to gentamicin treatment as invaded Ng.

polarized T84 cells [3] = assay: Fence function of the apical junction (CellMask) in polarized T84 cells; type: cell-based, human; details: polarized T84, Ng-inoculated; ML-7 10 μM, 2APB 10 μM
Protocol: Ng-induced junctional disassembly leads to a significant increase in the lateral diffusion between the apical and basolateral membrane but not in the permeability of epithelial monolayers. To determine whether Opa, MLCK and Ca^2+ flux are involved in this functional alteration of the apical junction, we stained the basolateral surface of polarized T84 epithelial cells exclusively with CellMask dye for […], after apical incubation with fluorescently labeled Ng for 6 h. The appearance of basolaterally stained CellMask dye in the apical membrane indicates a decrease in the fence function of the apical junction (FIG. 4D). […] The percentage of cells with basolaterally labeled CellMask reaching the apical surface increased to 19.4% when MS11Opa+ was inoculated and to 62.2% when MS11ΔOpa was inoculated (FIGS. 4E and 4F).
Fence functional of the apical junction. Polarized T84 cells were incubated with Ng apically for 6 h. Then the cells were incubated with the CellMask dye (5 μg/ml, Life Technologies) in the basolateral chamber only for 15 min, and xz images were acquired using Leica TCS SP5X confocal microscope (Leica Microsystems, Buffalo Grove, Ill.). The number of epithelial cells displaying CellMask staining at the apical membrane was countered visually as the percentage of the total number of epithelial cells in each randomly acquired image.

[4] = test system: phosphorylated myosin light chain (pMLC); assay: pMLC (active NMII) redistribution in Ng-inoculated polarized T84 cells (3D-CFM); type: cell-based, human; details: for accumulation of pMLC at Ng adherent sites / apical:lateral FIR of pMLC: polarized T84, Ng 6 h; for junction:non-junction FIR of pMLC: polarized T84, Ng 6 h (Y27632: MS11ΔOpa); for junction:non-junction FIR of pMLC / apical:lateral FIR of pMLC: ML-7 10 μM, PIK 100 μM, Y27632 10 μM, 2APB 10 μM, BAPTA 50 μM
Protocol: Ng induce and Opa suppresses the redistribution of active non-muscle myosin II in polarized and endocervical epithelial cells. […] We examined the cellular distribution of active NMII after 6-h incubation with Ng, using antibody specific for phosphorylated myosin light chain (pMLC) and 3D-CFM. In uninfected polarized T84 (FIGS. 5A and 5C) and HEC-1-B cells (FIG. 10), pMLC was primarily localized at the apical junction. The polarized distribution of pMLC at the apical surface was quantified by the FIR of pMLC at the apical to the lateral (Apical:Lateral) membrane areas in individual cells using CFM images scanning across the apical and basolateral surfaces (FIGS. 5A and 5B). The polarized distribution pMLC at the apical junction was quantified by the FIR of pMLC at the junction to non-junction (Junction:Non-junction) areas of the apical region using CFM images scanning through the apical junction (FIGS. 5C and 5D). The apical inoculation of MS11Opa+ and MS11ΔOpa caused significant increases in apical:lateral FIR in both polarized T84 (FIGS. 5A and 5B) and HEC-1-B cells (FIG. 10), compared to the no Ng control. There were also significant increases in the junction:non-junction FIR in infected polarized T84 cells, compared to non-infected cells (FIGS. 5C and 5D). […] We further noticed that NMII at the apical surface appeared to accumulate at Ng adherent sites (FIG. 5A, middle panels, arrows).
as §1

O=S(=O)(c1cccc2c(I)cccc12)N1CCCNCC1 [ML-7]
exfoliation of MS11ΔOpa-infected epithelial cells from T84 monolayers (polarized T84 cells [1]): reduced the exfoliation | transmigration of MS11ΔOpa across the polarized T84 monolayer [2]: significantly reduced the transmigration | Ng adherence to polarized T84 cells [2]: none of these inhibitors had any significant effect | Ng invasion into polarized T84 cells (gentamicin resistance) [2]: none of these inhibitors had any significant effect | percentage of epithelial cells with CellMask staining leaked to the apical surface (polarized T84 cells [3]): significantly lowered the percentage of epithelial cells with the CellMark staining leaked to the apical surface | accumulation of pMLC at Ng adherent sites [4]: significantly reduced | junction:non-junction FIR of pMLC [4]: significantly reduced | apical:lateral FIR of pMLC [4]: significantly reduced

NCCOB(c1ccccc1)c1ccccc1 [2APB]
exfoliation of MS11ΔOpa-infected epithelial cells from T84 monolayers (polarized T84 cells [1]): reduced the exfoliation of polarized T84 cells to the level similar to ML-7 and PIK | transmigration of MS11ΔOpa across the polarized T84 monolayer [2]: significantly reduced the transmigration | Ng adherence to polarized T84 cells [2]: none of these inhibitors had any significant effect | Ng invasion into polarized T84 cells (gentamicin resistance) [2]: none of these inhibitors had any significant effect | percentage of epithelial cells with CellMask staining leaked to the apical surface (polarized T84 cells [3]): significantly lowered the percentage of epithelial cells with the CellMark staining leaked to the apical surface | accumulation of pMLC at Ng adherent sites [4]: decreased | junction:non-junction FIR of pMLC [4]: decreased | apical:lateral FIR of pMLC [4]: decreased
